From patent US10653780B2, “Amino lipids and methods for the delivery of nucleic acids” (ARBUTUS BIOPHARMA CORPORATION, priority 2008, dated 2020)
Where “and” joins values, the source holds several entries; their conditions need not be identical. Equal values may be shown once. Read-outs that look alike come from different tables or passages of the source.

Assays:
transthyretin (TTR) = assay: TTR silencing by KC2-SNALP-formulated siTTR in non-human primates (liver TTR mRNA); assay type: in vivo, Cynomolgus monkeys; details: Macaca fascicularis, iv, single 15 minute i.v. infusion; 48 hours post-administration
Text: FIGS. 9A-B illustrate the efficacy of KC2-SNALP formulations. FIG. 9A is a graph showing the improved efficacy of KC2-SNALP versus a DLin-K-C2-DMA PFV formulation in mice. The in vivo efficacy of KC2-SNALP (◯) was compared to that of the un-optimized DLin-KC2-DMA PFV formulation (●) in the mouse FVII model. Data points are expressed as a percentage of PBS control animals and represent group mean (n=5)±s.d. FIG. 9B depicts the efficacy of KC2-SNALP in non-human primates. Cynomolgus monkeys (n=3 per group) received either 0.03, 0.1, 0.3 or 1 mg/kg siTTR, or 1 mg/kg siApoB formulated in KC2-SNALP or PBS as 15 minute intravenous infusions (5 mL/kg) via the cephalic vein. Animals were sacrificed at 48 hours post-administration. TTR mRNA levels relative to GAPDH mRNA levels were determined in liver samples. Data points represent group mean±s.d. *=P<0.05; **=P<0.005.
Given the promising activity and safety profile observed in rodents in the studies described in Example 17, studies were performed in non-human primates to investigate the translation of DLin-KC2-DMA activity in higher species. For these studies, transthyretin (TTR), a hepatic gene of high therapeutic interest, was targeted. […]
Tissues were harvested at 48 hours post-administration, and liver mRNA levels of TTR were determined. […]

[1] = Tolerability of DLin-K-C2-DMA lipid particles in mice; assay type: in vivo
Method: (§1) Data was recorded as % Change in Body Weight.

[2] = assay type: in vivo; details: rats
Method: as §1
Histopathology results for livers obtained from rats treated with 91 mg/kg (“5” mg/kg) were normal.

[3] = Bilayer-to-hexagonal HII transition temperature (TBH) in equimolar mixtures with DSPS; assay type: physicochemical
Text: Both techniques gave similar results.

[4] = In situ determination of apparent pKa using TNS fluorescence titration
Text: In situ pKa measurements were made using the pH sensitive fluorescent probe TNS, using a modification of the approach previously published in Bailey, A. L. and Cullis, P. R., Biochemistry 33:12573-12580 (1994).
Titrations of surface charge as a function of pH can then be used to determine the apparent pKa (hereafter referred to as pKa) of constituent lipids (Cullis, P. R., et al., Chem Phys Lipids 40:127-144 (1986)).

Factor VII (FVII) [5] = details: for ED50: siRNA dose reducing serum FVII protein by 50% at 24 h, PFV LN-siRNA 40/10/40/10
Text: It is well established that in vivo RNAi silencing of specific hepatocyte proteins can be achieved following intravenous (i.v.) administration of siRNA's encapsulated in, or associated with, select nanoparticles designed for intracellular delivery. […] In this Example, rational design in combination with in vivo screening were applied to systematically modify the structure of DLinDMA and identify molecular features that enhance or reduce cationic lipid potency. More than 30 lipids were synthesized and incorporated into nucleic acid-lipid particles, i.e., lipid nanoparticles (LN) encapsulating an siRNA (LN-siRNA) targeting Factor VII (FVII), a blood clotting component synthesized and secreted by hepatocytes that is readily measured in serum. LN-siRNA systems were prepared using the same process, lipid molar ratios and particle size to minimize effects on activity resulting from formulation characteristics other than the cationic lipid. Each formulation was administered as a single bolus injection over a range of doses enabling an estimate of the siRNA dose required to reduce FVII serum protein concentrations by 50% after 24 h (ED50).
FVII activity was evaluated in FVII siRNA-treated animals at 24 hours after intravenous (bolus) injection in C57BL/6 mice or 48 hours after intravenous (bolus) injection in SD rats. Six to 8 week old, female C57Bl/6 mice were obtained from Charles River Laboratories and acclimated for one week prior to use in studies. Animals were held in a pathogen-free environment and all procedures involving animals were performed in accordance with the guidelines established by the Canadian Council on Animal Care.
LN-siRNA systems containing Factor VII siRNA were diluted to the appropriate concentrations in sterile phosphate buffered saline immediately prior to use, and the formulations were administered intravenously via the lateral tail vein in a total volume of 10 ml/kg. After 24 h, animals were anaesthetised with Ketamine/Xylazine and blood was collected by cardiac puncture and processed to serum (Microtainer Serum Separator Tubes; Becton Dickinson, Franklin Lakes, N.J., USA). Serum was tested immediately or stored at −70° C. for later analysis for serum Factor VII levels.
FVII was measured using a commercially available kit (Biophen FVII Kit™; Aniara Corp., Mason, Ohio), following the manufacturer's instructions at a microplate scale. FVII reduction was determined against untreated control animals, and the results were expressed as % Residual FVII. Five dose levels (0.1, 0.3, 0.5, 1.0, and 3.0 mg/kg) were typically used.
Serum Factor VII levels were determined using the colorimetric Biophen VII assay kit (Anaira, USA). Briefly, serially diluted pooled control serum (200%-3.125%) and appropriately diluted plasma samples from treated animals were analyzed using the Biophen VII kit according to manufacturer's instructions in 96-well, flat bottom, non-binding polystyrene assay plates (Corning, Corning, N.Y.) and absorbance at 405 nm was measured. A calibration curve was generated using the serial diluted control serum and used to determine levels of Factor VII in serum from treated animals.
Initial studies were performed in eight to 10 week old, female C57BL/6 mice in two stages. In the first stage, the activity associated with the benchmark lipid DLinDMA was compared to the activity associated with modified forms of DLinDMA.

Factor VII (FVII) [6] = assay: In vivo FVII activity of nucleic acid-lipid formulations in rats; set-up: species or system SD rats; details: PEG-C-DOMG as PEG-lipid
Method: The ability of various nucleic acid-lipid formulations comprising different cationic lipids was further explored in mice and rats. Each of the tested nucleic acid-lipid formulations was prepared as described above using PEG-C-DOMG as the PEG-lipid. The formulations initially tested (which included either DLin-K-DMA, DLin-K-MPZ, DLin-K-C2-DMA, or DLin-K-C4-DMA) reduced residual FVII levels in both mice (FIG. 3) and rats (FIG. 4). […] The activity of the DLin-K-C2-DMA formulation was approximately 2-3-fold greater than the DLin-K-DMA formulation in mice, and approximately 10-20-fold greater than the DLin-K-DMA formulation in rats. A comparison of FVII reduction in mice and rats using the DLin-K-DMA formulation or the DLin-K-C2-DMA formulation is shown in FIG. 5.

With `CCCCC/C=C\C/C=C\CCCCCCCCC1(CCCCCCCC/C=C\C/C=C\CCCCC)OCC(CCN(C)C)O1` (centres unmarked) [DLin-K-C2-DMA, 2,2-Dilinoleyl-4-(2-dimethylaminoethyl)-[1,3]-dioxolane] the ED50 (transthyretin (TTR)) was 0.3 mg/kg, the body weight ([1]; mice) was “dose-dependent loss of weight” and the “increase in ALT-AST” value ([1]; mice, approximately 1100 mg/kg lipid) was “greater than 10 fold”. For the same compound, the clinical signs ([1]; mice, except at greater than 1300 mg/kg (hunched, slower movement, scruffy coat)) was “no obvious clinical signs”, the mortality ([1]; mouse, in vivo) was “no mice died” and the “lipid dose as low as which significant increases in ALT/AST were seen” value [2] was 182 mg/kg lipid. For the same compound, the liver histopathology ([2]; 91 mg/kg) was “normal”, the “clinical observations and liver appearance” value ([2]; 91 mg/kg lipid) was “appeared normal and had normal livers” and the liver histopathology ([2]; 182 mg/kg) was “mild to moderate hepatocellular necrosis, centrilobular, and hepatocellular vacuolization”. For the same compound, the clinical observations ([2]; 182 mg/kg lipid) was “slower movement and a scruffy coat”, the “clinical observations and liver appearance” value ([2]; 364 mg/kg lipid) was “hunched, slower movement, quinting eyes, scruffy coats, piloerection, red/orange uring, with pale and some mottling livers” and the mortality ([2]; 364 mg/kg lipid) was “one died”. The body weight ([2]; 24 hours after i.v. treatment) was “dose-dependent loss of weight”, the “TBH lower than that for DLinDMA” value [3] was 7 °C and the HII transition temperature ([3]; equimolar with DSPS, pH 4.8, 31P NMR and DSC) was 20 °C. For the same compound, the pKa [4] was 6.4, the pKa ([4]; nucleic acid-lipid particles containing the cationic lipid) was 6.4 and the ED50 (Factor VII (FVII) [5]; Table 6) was about 0.1 mg/kg. For the same compound, the “FVII ED50” value (Factor VII (FVII) [5]; Table 11) was about 0.1 mg/kg, the “fold more potent / greater activity than DLin-K-DMA” value (Factor VII (FVII) [5]; mice) was 4 fold and 2-3 fold and the “fold difference in in vivo activity between DLin-K-C2-DMA and DLin-K-C4-DMA” value (Factor VII (FVII) [5]; mouse, in vivo) was over 30 fold. For the same compound, the “fold more potent than the DLinDMA benchmark” value (Factor VII (FVII) [5]; reducing serum FVII protein, mouse, head-to-head) was 10 fold, the “siRNA dose as low as which in vivo activity was exhibited” value (Factor VII (FVII) [5]; rodents) was 0.01 mg/kg and the ED50 (Factor VII (FVII) [5]) was about 0.1 mg/kg. The “encapsulated siRNA sufficient to knockdown serum FVII protein by 50%” value (Factor VII (FVII) [5]; single i.v. bolus to a mouse, within 24 h, 40 mole % cationic lipid) was about 100 picomoles and the “fold greater activity than the DLin-K-DMA formulation” value (Factor VII (FVII) [6]) was 10-20 fold.
